Experimental data: ChEMBL document CHEMBL1909046, “DrugMatrix in vitro pharmacology data”

How the values were obtained:
[1] = biological target: Tyrosine-protein kinase Fyn (Homo sapiens, UniProt P06241); assay: biochemical; format: cell-based, Insect cells; conditions: insect cells;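 further: enzymatic inhibition of Fyn kinase activity measured with Poly(Glu:Tyr) as the phosphorylation substrate; in other assays of this panel Not Active means under 50% inhibition at 10 µM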
[2] = DRUGMATRIX: Phorbol Ester radioligand binding (ligand: [3H] PDBu); format: cell membranes, Mus musculus, ICR, Brain, Membrane; conditions: Not Active = under 50% inhibition at 10 µM
[3] = biological target: Receptor tyrosine-protein kinase erbB-2 (Homo sapiens, UniProt P04626); assay: biochemical; format: cell-based, Insect cells; conditions: insect cells;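 further: inhibition of HER2 kinase enzyme activity, measured with Poly(Glu:Tyr) as the phosphorylation substrate; in other assays of this panel Not Active means under 50% inhibition at 10 µM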
Histamine H2 receptor = Histamine H2 receptor (Homo sapiens, UniProt P25021); format: cell membranes, CHO-K1, Membrane; further: in other assays of this panel Not Active means under 50% inhibition at 10 µM
Chain of Histamine H2 receptor (P25021 whole entry): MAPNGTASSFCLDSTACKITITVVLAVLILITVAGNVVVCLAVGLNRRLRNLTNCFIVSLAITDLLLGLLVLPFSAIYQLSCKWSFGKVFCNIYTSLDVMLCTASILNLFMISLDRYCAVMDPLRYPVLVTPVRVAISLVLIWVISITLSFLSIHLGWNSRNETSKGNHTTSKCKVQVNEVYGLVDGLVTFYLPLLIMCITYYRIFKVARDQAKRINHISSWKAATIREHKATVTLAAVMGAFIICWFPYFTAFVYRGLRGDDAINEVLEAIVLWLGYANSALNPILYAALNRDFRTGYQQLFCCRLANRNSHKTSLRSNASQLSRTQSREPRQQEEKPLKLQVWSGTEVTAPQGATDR

[4] = biological target: T1, Neuropeptide Y receptor type 1 (Homo sapiens, UniProt P25929); format: cell membranes, Membrane; conditions: sk-n-mc; further: in other assays of this panel Not Active means under 50% inhibition at 10 µM
T1 sequence (P25929 whole entry): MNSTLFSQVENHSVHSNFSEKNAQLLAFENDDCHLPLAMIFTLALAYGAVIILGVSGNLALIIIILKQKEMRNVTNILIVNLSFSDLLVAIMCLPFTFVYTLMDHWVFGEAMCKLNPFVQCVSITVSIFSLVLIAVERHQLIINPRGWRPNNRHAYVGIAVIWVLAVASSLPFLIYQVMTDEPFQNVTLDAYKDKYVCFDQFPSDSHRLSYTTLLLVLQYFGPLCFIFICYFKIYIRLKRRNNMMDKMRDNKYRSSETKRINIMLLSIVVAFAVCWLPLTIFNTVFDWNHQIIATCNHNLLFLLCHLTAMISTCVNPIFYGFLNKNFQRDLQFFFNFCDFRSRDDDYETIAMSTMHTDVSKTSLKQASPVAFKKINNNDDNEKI

[5] = biological target: Sodium-dependent dopamine transporter (Homo sapiens, UniProt Q01959); assay: DRUGMATRIX: Dopamine Transporter radioligand binding (ligand: [125I] RTI-55); format: cell membranes, CHO-K1, Membrane; conditions: cho-k1; Not Active = under 50% inhibition at 10 µM
Chain of Sodium-dependent dopamine transporter (Q01959 whole entry): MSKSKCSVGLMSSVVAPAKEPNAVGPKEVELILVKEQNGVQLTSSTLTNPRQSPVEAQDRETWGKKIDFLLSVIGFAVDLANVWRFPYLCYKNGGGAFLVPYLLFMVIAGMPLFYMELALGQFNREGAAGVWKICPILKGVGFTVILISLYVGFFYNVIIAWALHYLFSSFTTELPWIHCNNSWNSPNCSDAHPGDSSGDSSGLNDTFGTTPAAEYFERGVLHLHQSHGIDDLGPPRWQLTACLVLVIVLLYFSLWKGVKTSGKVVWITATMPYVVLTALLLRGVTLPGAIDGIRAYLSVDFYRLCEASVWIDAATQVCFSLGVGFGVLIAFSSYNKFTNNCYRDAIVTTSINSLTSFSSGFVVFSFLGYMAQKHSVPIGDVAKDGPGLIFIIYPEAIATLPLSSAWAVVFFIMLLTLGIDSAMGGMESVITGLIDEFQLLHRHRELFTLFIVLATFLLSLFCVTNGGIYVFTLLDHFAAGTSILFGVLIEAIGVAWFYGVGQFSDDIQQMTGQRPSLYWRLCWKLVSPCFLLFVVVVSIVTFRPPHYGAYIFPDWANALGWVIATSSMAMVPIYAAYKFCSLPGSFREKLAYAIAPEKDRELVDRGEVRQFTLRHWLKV

Chain of Tyrosine-protein kinase Fyn (P06241 whole entry): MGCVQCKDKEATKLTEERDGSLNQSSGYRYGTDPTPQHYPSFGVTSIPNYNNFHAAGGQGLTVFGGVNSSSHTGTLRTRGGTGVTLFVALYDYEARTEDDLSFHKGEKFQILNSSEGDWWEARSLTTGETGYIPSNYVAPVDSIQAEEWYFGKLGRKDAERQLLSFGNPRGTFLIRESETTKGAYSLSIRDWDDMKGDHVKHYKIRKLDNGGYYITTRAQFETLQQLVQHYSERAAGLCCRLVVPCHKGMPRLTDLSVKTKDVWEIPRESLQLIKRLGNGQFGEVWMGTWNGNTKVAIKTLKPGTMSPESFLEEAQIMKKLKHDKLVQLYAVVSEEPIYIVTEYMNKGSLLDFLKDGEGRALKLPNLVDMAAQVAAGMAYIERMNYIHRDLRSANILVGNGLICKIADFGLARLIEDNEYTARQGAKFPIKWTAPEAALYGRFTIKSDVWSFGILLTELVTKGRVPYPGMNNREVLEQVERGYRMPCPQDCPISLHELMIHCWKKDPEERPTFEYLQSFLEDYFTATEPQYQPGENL

Compound	IC50 [1]	IC50 [2]	Ki [2]	IC50 [3]	IC50 (Histamine H2 receptor; cho-k1)	IC50 [4]	IC50 [5]	IC50 (Histamine H2 receptor; read-out: IC50) [µM]	Ki (Histamine H2 receptor; read-out: Ki) [µM]	Ki [1]	Ki [3]	Ki (Histamine H2 receptor; cho-k1)	Ki [4]	Ki [5]
CN1C(=O)CN=C(c2ccccc2)c2cc([N+](=O)[O-])ccc21 [NIMETAZEPAM]	Not Active	Not Active	Not Active	Not Active	Not Active	Not Active	Not Active	–	–	–	–	–	–	–
COc1ccc2c(c1OC)C(=O)O[C@@H]2[C@H]1c2c(cc3c(c2OC)OCO3)CCN1C [NOSCAPINE]	Not Active	Not Active	Not Active	Not Active	Not Active	Not Active	Not Active	–	–	–	–	–	–	–
C[C@@H]1O[C@@H](O[C@H]2C[C@@H](O)[C@]3(CO)[C@H]4[C@H](O)C[C@]5(C)[C@@H](C6=CC(=O)OC6)CC[C@]5(O)[C@@H]4CC[C@]3(O)C2)[C@H](O)[C@H](O)[C@H]1O [OUABAIN]	Not Active	Not Active	Not Active	Not Active	Not Active	Not Active	Not Active	–	–	–	–	–	–	–
NC(=O)N1c2ccccc2CC(=O)c2ccccc21 [OXCARBAZEPINE]	Not Active	Not Active	Not Active	Not Active	Not Active	Not Active	Not Active	–	–	–	–	–	–	–
COc1ccnc(C[S+]([O-])c2nc3ccc(OC(F)F)cc3[nH]2)c1OC (centres undefined) [PANTOPRAZOLE]	Not Active	Not Active	Not Active	Not Active	Not Active	Not Active	Not Active	–	–	–	–	–	–	–
NNCCc1ccccc1 [PHENELZINE]	Not Active	Not Active	Not Active	Not Active	Not Active	Not Active	Not Active	–	–	–	–	–	–	–
CCc1ccc(CCOc2ccc(CC3SC(=O)NC3=O)cc2)nc1 (centres undefined) [PIOGLITAZONE]	Not Active	Not Active	Not Active	Not Active	Not Active	Not Active	Not Active	–	–	–	–	–	–	–
CCCNC(C)C(=O)Nc1ccccc1C (centres undefined) [PRILOCAINE]	Not Active	Not Active	Not Active	Not Active	Not Active	Not Active	Not Active	–	–	–	–	–	–	–
CCN(CC)CCNC(=O)c1ccc(N)cc1 [PROCAINAMIDE]	Not Active	Not Active	Not Active	Not Active	Not Active	Not Active	Not Active	–	–	–	–	–	–	–
CCN(CC)CCCC(C)Nc1c2ccc(Cl)cc2nc2ccc(OC)cc12 (centres undefined) [QUINACRINE]	Not Active	Not Active	Not Active	Not Active	–	Not Active	Not Active	3.54	3.48	–	–	–	–	–
C[C@]12C=CC(=O)C=C1CC[C@H]1[C@@H]3C[C@@H](O)[C@](O)(C(=O)CO)[C@@]3(C)C[C@H](O)[C@@]12F [TRIAMCINOLONE]	Not Active	Not Active	Not Active	Not Active	Not Active	Not Active	Not Active	–	–	–	–	–	–	–
CC[C@]1(O)C[C@@H]2CN(CCc3c([nH]c4ccccc34)[C@@](C(=O)OC)(c3cc4c(cc3OC)N(C)[C@H]3[C@@](O)(C(N)=O)[C@H](O)[C@]5(CC)C=CCN6CC[C@]43[C@@H]65)C2)C1 [VINDESINE]	Not Active	Not Active	Not Active	Not Active	Not Active	Not Active	Not Active	–	–	–	–	–	–	–
CCN(C(C)=O)c1cccc(-c2ccnc3c(C#N)cnn23)c1 [ZALEPLON]	Not Active	Not Active	Not Active	Not Active	Not Active	Not Active	Not Active	–	–	–	–	–	–	–
COBALTOUS CHLORIDE	Not Active	Not Active	Not Active	Not Active	Not Active	Not Active	Not Active	–	–	Not Active	Not Active	Not Active	Not Active	Not Active
